Experiments:
Assay in all cases: EC50 for viability (resazurin, 96 h)
HCT116 = details: RPMI+GlutaMAX (10% FBS, 1% P/S)
PA-TU-8988T = details: DMEM+GlutaMAX (5% dFBS, 1% P/S)
SW620 MTHFD2 -/- = details: RPMI+GlutaMAX (5% dFBS, 1% P/S)
SW620 MTHFD2-/- = details: RPMI+GlutaMAX (5% dFBS, 1% P/S)
SW620 WT = test system: SW620 WT
SW620 = test system: SW620

Nc1nc(N)c(NC(=O)Nc2cnc(C(=O)N[C@@H](CCc3nnn[nH]3)C(=O)O)c(F)c2)c(=O)[nH]1
Details	EC50 for viability [nM]
HCT116, metabolite supplement: Hypoxanthine	6.57
HCT116, metabolite supplement: Vehicle	13.1
PA-TU-8988T, metabolite supplement: Thymidine	1.6
PA-TU-8988T, metabolite supplement: Vehicle	1.31
SW620 MTHFD2 -/-, metabolite supplement: Hypoxanthine	1.53
SW620 MTHFD2 -/-, metabolite supplement: Sodium Formate	12.5
SW620 MTHFD2 -/-, metabolite supplement: Thymidine	0.604
SW620 MTHFD2 -/-, metabolite supplement: Thymidine + Sodium Formate	129
SW620 MTHFD2 -/-, metabolite supplement: Vehicle	0.506
SW620 MTHFD2-/-, metabolite supplement: Hypoxanthine + Formate	15.8
SW620 MTHFD2-/-, metabolite supplement: Vehicle	0.501

Details	EC50 for viability [nM]
SW620 WT, RPMI+GlutaMAX (5% dFBS, 1% P/S), metabolite supplement: Adenine	15.3
SW620 WT, RPMI+GlutaMAX (5% dFBS, 1% P/S), metabolite supplement: Adenosine	16.6
SW620 WT, RPMI+GlutaMAX (5% dFBS, 1% P/S), metabolite supplement: Guanosine	19.9
SW620 WT, RPMI+GlutaMAX (5% dFBS, 1% P/S), metabolite supplement: Hypoxanthine	14.1
SW620 WT, RPMI+GlutaMAX (5% dFBS, 1% P/S), metabolite supplement: Hypoxanthine + AICAr 10 µM	12.3
SW620 WT, RPMI+GlutaMAX (5% dFBS, 1% P/S), metabolite supplement: Hypoxanthine + AICAr 30 µM	16.4
SW620 WT, RPMI+GlutaMAX (5% dFBS, 1% P/S), metabolite supplement: Hypoxanthine + AICAr 50 µM	20
SW620 WT, RPMI+GlutaMAX (5% dFBS, 1% P/S), metabolite supplement: Hypoxanthine + AICAr 100 µM	> 10000
SW620 WT, RPMI+GlutaMAX (5% dFBS, 1% P/S, 10 uM Hypoxanthine), metabolite supplement: Thymidine 0.1 uM	16.5
SW620 WT, RPMI+GlutaMAX (5% dFBS, 1% P/S, 10 uM Hypoxanthine), metabolite supplement: Thymidine 0.5 uM	24.3
SW620 WT, RPMI+GlutaMAX (5% dFBS, 1% P/S, 10 uM Hypoxanthine), metabolite supplement: Thymidine 1uM	13.7
SW620 WT, RPMI+GlutaMAX (5% dFBS, 1% P/S, 10 uM Hypoxanthine), metabolite supplement: Thymidine 5uM	> 10000
SW620 WT, RPMI+GlutaMAX (5% dFBS, 1% P/S, 10 uM Hypoxanthine), metabolite supplement: Thymidine 10 uM	> 10000
SW620 WT, RPMI+GlutaMAX (5% dFBS, 1% P/S, 10 uM Hypoxanthine), metabolite supplement: Thymidine 25 uM	> 10000
SW620 WT, RPMI+GlutaMAX (5% dFBS, 1% P/S, 10 uM Hypoxanthine), metabolite supplement: Thymidine 50 uM	> 10000
SW620 WT, RPMI+GlutaMAX (5% dFBS, 1% P/S, 10 uM Hypoxanthine), metabolite supplement: Vehicle	13.6
SW620 WT, RPMI+GlutaMAX (5% dFBS, 1% P/S, 50 uM Hypoxanthine), metabolite supplement: Thymidine 0.1 uM	17.5
SW620 WT, RPMI+GlutaMAX (5% dFBS, 1% P/S, 50 uM Hypoxanthine), metabolite supplement: Thymidine 0.5 uM	14.5
SW620 WT, RPMI+GlutaMAX (5% dFBS, 1% P/S, 50 uM Hypoxanthine), metabolite supplement: Thymidine 1uM	12.5
SW620 WT, RPMI+GlutaMAX (5% dFBS, 1% P/S, 50 uM Hypoxanthine), metabolite supplement: Thymidine 5uM	> 10000
SW620 WT, RPMI+GlutaMAX (5% dFBS, 1% P/S, 50 uM Hypoxanthine), metabolite supplement: Thymidine 10 uM	> 10000
SW620 WT, RPMI+GlutaMAX (5% dFBS, 1% P/S, 50 uM Hypoxanthine), metabolite supplement: Thymidine 25 uM	> 10000
SW620 WT, RPMI+GlutaMAX (5% dFBS, 1% P/S, 50 uM Hypoxanthine), metabolite supplement: Thymidine 50 uM	> 10000
SW620 WT, RPMI+GlutaMAX (5% dFBS, 1% P/S, 50 uM Hypoxanthine), metabolite supplement: Vehicle	13
SW620, HPLM (5% dFBS, 1% P/S), metabolite supplement: Vehicle	12.7
SW620, RPMI+GlutaMAX (5% FBS, 1% P/S), metabolite supplement: Vehicle	13.4
SW620, RPMI+GlutaMAX (5% dFBS, 1% P/S), metabolite supplement: 50 µM Hypoxanthine	14
SW620, RPMI+GlutaMAX (5% dFBS, 1% P/S), metabolite supplement: Vehicle	14.7
SW620, RPMI+GlutaMAX (10% FBS, 1% P/S), metabolite supplement: Folic acid	597
SW620, RPMI+GlutaMAX (10% FBS, 1% P/S), metabolite supplement: Folinic acid	687
SW620, RPMI+GlutaMAX (10% FBS, 1% P/S), metabolite supplement: Hypoxanthine	10.4
SW620, RPMI+GlutaMAX (10% FBS, 1% P/S), metabolite supplement: Sodium Formate	12.7
SW620, RPMI+GlutaMAX (10% FBS, 1% P/S), metabolite supplement: Thymidine	> 10000
SW620, RPMI+GlutaMAX (10% FBS, 1% P/S), metabolite supplement: Thymidine + Folic acid	1920
SW620, RPMI+GlutaMAX (10% FBS, 1% P/S), metabolite supplement: Vehicle	9.47

Reference: the supplement of paper PMC10132981, “Formate overflow drives toxic folate trapping in MTHFD1 inhibited cancer cells” (Nature Metabolism, 2023)
